Test results reported in US9820487B2, “Abscinazole” (NATIONAL UNIVERSITY CORPORATION SHIZUOKA UNIVERSITY, priority 2014, dated 2017).

Target: T1, abscisic acid 8′-hydroxylase CYP707A3 (Arabidopsis thaliana, UniProt Q9FH76)
T1 sequence (Q9FH76 1-463): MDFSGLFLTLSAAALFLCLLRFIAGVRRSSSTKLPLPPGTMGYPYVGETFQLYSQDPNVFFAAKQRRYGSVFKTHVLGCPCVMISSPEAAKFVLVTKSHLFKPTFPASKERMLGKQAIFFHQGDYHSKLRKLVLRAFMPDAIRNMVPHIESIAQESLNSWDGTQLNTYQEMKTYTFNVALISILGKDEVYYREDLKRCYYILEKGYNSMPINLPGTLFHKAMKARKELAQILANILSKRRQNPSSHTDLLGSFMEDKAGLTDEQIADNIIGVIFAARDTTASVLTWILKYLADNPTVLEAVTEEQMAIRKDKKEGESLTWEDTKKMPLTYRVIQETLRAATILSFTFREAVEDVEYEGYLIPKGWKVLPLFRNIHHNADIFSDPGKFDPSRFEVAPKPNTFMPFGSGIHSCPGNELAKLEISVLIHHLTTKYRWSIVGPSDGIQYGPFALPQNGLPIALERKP
Test: Abscisic acid 8′-hydroxylase CYP707A3 inhibition test
Format: biochemical
Conditions: CYP707A3 + NADPH-P450 reductase ATR1, substrate ABA, 30° C. 10 minutes; IC50 calculated from two concentrations
Procedure: In a 1.5 mL microtube, 10 μL of a solution of substrate 250 μM ABA in potassium/phosphate buffer (KPB), 5 μL of a solution of the sample in dimethylformamide, 435 μL of KPB and 40 μL of abscisic acid 8′-hydroxylase CYP707A3+NADPH-P450 reductase ATR1 were put and heated at 30° C. for 10 minutes. 10 μL of a solution of 5 mg/mL NADPH in KPB was added thereto thereby starting the enzyme reaction. The reaction was carried out at 30° C. for 10 minutes at a rotation speed of 1000 rpm, and 25 μL of an aqueous solution of 1 M sodium hydroxide was added thereto thereby terminating the reaction. The reaction solution was allowed to stand at 4° C. for 30 minutes and subsequently 50 μL of 1 M hydrochloric acid was added thereto to convert the enzyme metabolite to phaseic acid (PA). The enzyme reaction solution was subjected to an OASIS HLB cartridge (1 cc, 30 mg; washed with 1 mL of methanol (1% acetic acid) and equilibrated with 1 mL of water (1% acetic acid)) and washed with 1 mL of 10% methanol/water (1% acetic acid) thereby eluting phaseic acid with 1 mL of methanol (1% acetic acid). The eluate was concentrated under reduced pressure (toluene was added to azeotrope acetic acid), the obtained substance was dissolved in 50 μL of methanol. 20 μL of the solution was subjected to HPLC (column, YMC-Pack Hydrosphere C18 (6 mm inner diameter×150 mm length); flow rate 1 mL/min; detection 254 nm) analysis. The CYP707A3 inhibition rate of the samples was calculated in accordance with the following formula (3). Note that dimethylformamide was used for the control in place of the sample solution. Each sample was tested with two different concentrations to calculate the 50% inhibition concentration (IC50) based on the enzyme inhibition rates thereof The results are shown in Table 1.
Enzyme inhibition rate (%)={1-(PA peak area of each sample/PA peak area of control)}×100 . . . (3)

COCCOCCOCCOCC#Cc1cccc(/C=C(\[C@@H](O)C(C)(C)C)n2cncn2)c1 [Example 1 (−) Form, (−)-(S)-(E)-1-(3-(2,5,8,11-tetraoxatetradec-13-yn-14-yl)phenyl)-4,4-dimethyl-2-(1H-1,2,4-triazol-1-yl)pent-1-en-3-ol]
potency estimated from few doses: 64 nM
